{
  "source": "patent US20230241088A1",
  "about": "“COMPOSITION FOR PREVENTING OR TREATING LUNG CANCER COMPRISING ORTHO-TOPOLIN RIBOSIDE AS ACTIVE INGREDIENT” (CHUNG-ANG UNIVERSITY INDUSTRY-ACADEMY COOPERATION FOUNDATION, priority 2022, published 2023)",
  "key": {"xenograft tumor tissues": {"test_system": "xenograft tumor tissues", "experiment": "GC-MS and nanoESI-MS metabolite and lipid profiling of xenograft tumor tissues", "assay_type": "in vivo, nude mice (female, BALB/cSlc-nu/nu)", "protocol": "The tumor tissue was weighed above 25 mg, and 0.3 mL of ice-cold methanol containing 0.1% BHT was added, followed by homogenization for 1 minutes. Homogenized samples were centrifuged at 10,000×g for 15 minutes at 4° C. The supernatant corresponding to 10 mg of the tissue was used, and metabolites and lipids were extracted using modified Folch method.\n(§1) To perform metabolite and lipid analyses of the extracted samples of NSCLC cells and xenograft tumor tissues, GC-MS and nanoESI-MS analyses were conducted according to a previously described method. For quality control (QC), the equal volume of mixture was taken from each sample to be analyzed.\n(§2) Raw data files of the lipid analysis (*.raw) were converted into *.mzXML format using the Proteo Wizard MSConvert software. The metabolite and lipid mass spectra were converted using the Expressionist® MSX software (version 2013.0.39, Genedata, Basel, Switzerland) for data processing. The data obtained from NSCLC cells were divided by the peak intensity of the internal standard and total protein content for normalization. The data obtained from the NSCLC xenograft model were divided by the peak intensity of the internal standard for normalization. The data obtained thereby were used for fold-change analysis using the MetaboAnalyst (version 5.0; http://www.metaboanalyst.ca). SPSS software (version 26, IBM, Somers, N.Y.) was used for significance examination for the results, and identification was conducted by Student's t-test and Mann-Whitney test. All data were mean-centered and pretreated to Pareto scaling for principal component analysis (PCA) and orthogonal partial least-squares discriminant analysis (OPLS-DA), performed using the SIMCA-P software (version 15.0.2, Sartorius Stedim Data Analytics AB, Umea, Sweden). Cross validations and permutation tests (100 times) were performed to evaluate the goodness of fit value and predictability of the OPLS-DA model. Volcano plots were generated using the GraphPad Prism 9.0.\noTR-induced alterations of metabolic and lipidomic profiles were analyzed using 5 NSCLC cell lines (A549, H1437, H2087, H522, and HCC827) and xenograft tumor tissues by performing GC-MS and nanoESI-MS analyses. The relative changes in identified metabolites and intact lipid species are shown as fold-changes. Myo-inositol, amino acids (β-alanine, aspartate, serine, threonine, glutamate, glycine, proline, and tyrosine), organic acids (malate and lactate), pyrimidines (uracil and uridine), creatinine, hypoxanthine, and putrescine decreased in oTR-treated NSCLC cells compared to those in NSCLC cells. These metabolites were the outcomes of consistent and significant alterations in 3 NSCLC cell lines compared to those of respective controls."}, "[1]": {"test_system": "NSCLC cell lines (A549, H1437, H2087, H522, and HCC827)", "experiment": "GC-MS and nanoESI-MS metabolite and lipid profiling of NSCLC cells", "assay_type": "cell-based, Human", "protocol": "The cells were seeded at a density of 2×10^5 cells/mL in a 6-well plate and treated with oTR (10 μM) for 48 hours. The cells were pooled from 3 wells in the 6-well plate and centrifuged at 1,000×g at 4° C. for 2 minutes. The cells were frozen in liquid nitrogen and stored at −70° C. until analysis. The cells were lysed by two freeze-thaw cycles using liquid nitrogen and 37° C. water bath. Protein concentrations were determined using the Bio-Rad protein assay kit (Thermo Scientific, Rockford, Ill.). Bovine serum albumin (BSA) was used as a standard for normalization. The cells were freeze-dried and stored at −70° C. until additional analysis.\nas §1, §2\noTR-induced alterations of metabolic and lipidomic profiles were analyzed using 5 NSCLC cell lines (A549, H1437, H2087, H522, and HCC827) and xenograft tumor tissues by performing GC-MS and nanoESI-MS analyses. The relative changes in identified metabolites and intact lipid species are shown as fold-changes. […]"}, "[2]": {"details": "both oTR groups (100 and 150 mg/kg)"}},
  "data": [
    {"molecule": "OC[C@H]1O[C@@H](n2cnc3c(NCc4ccccc4O)ncnc32)[C@H](O)[C@@H]1O", "note": "[oTR, ortho topolin riboside]", "values": [
      {"measurement": "PC, PE, PG, and PI species levels", "setting": "xenograft tumor tissues; 100 mg/kg and 150 mg/kg", "value": "increase"},
      {"measurement": "PS species levels", "setting": "xenograft tumor tissues; 150 mg oTR-treated group vs control", "value": "increased"},
      {"measurement": "level of aspartate, ascorbate, glucose, glutamate, ornithine, phenylalanine, proline, serine, threonine", "setting": "xenograft tumor tissues; 150 mg/kg group vs control", "value": "significant reduction"},
      {"measurement": "citrate, ornithine, and uridine levels", "setting": "xenograft tumor tissues; [2]", "value": "significantly decreased"},
      {"measurement": "β-alanine, aminomalonate, glycerol, glycine, and uracil levels", "setting": "xenograft tumor tissues; [2]", "value": "increased"},
      {"measurement": "lactate level", "setting": "[1]; all NSCLC cell lines, oTR 10 μM, 48 hours", "value": "significantly decreased"},
      {"measurement": "levels of myo-inositol, amino acids, organic acids (malate and lactate), pyrimidines (uracil and uridine), creatinine, hypoxanthine, putrescine", "setting": "[1]; oTR 10 μM, 48 hours, vs untreated NSCLC cells", "value": "decreased"},
      {"measurement": "PC, PE, and PS species and Cer 18:1/22:0 levels", "setting": "[1]; oTR-treated NSCLC cells", "value": "increased"},
      {"measurement": "levels of PG and PI species", "setting": "[1]; oTR-treated NSCLC cells", "value": "decreased"}
    ]}
  ]
}
